Measurements as given in the NIST ThermoML archive (doi:10.1016/j.jct.2008.01.012).
Numbers after ± are expanded uncertainties.

Columns and labels:
[1] = Liquid, Diaphragm manometer
[2] = excess molar enthalpy (molar enthalpy of mixing); xn = mol fraction of the nth substance listed; conditions: 303.15 K, 101 kPa, Liquid, Calvet calorimetry

For `CCN(CC)CCCN` [N,N-diethylpropane-1,3-diamine], the “vapor or sublimation pressure” value ([1]; 303.15 K) was 0.31 ± 0.014 kPa, the “vapor or sublimation pressure” value ([1]; 313.15 K) was 0.586 ± 0.026 kPa and the “vapor or sublimation pressure” value ([1]; 323.15 K) was 1.053 ± 0.046 kPa. For the same compound, the “vapor or sublimation pressure” value ([1]; 333.15 K) was 1.809 ± 0.079 kPa and the “vapor or sublimation pressure” value ([1]; 343.15 K) was 2.987 ± 0.13 kPa.
In the case of `CCN(CC)CCCN` [N,N-diethylpropane-1,3-diamine] + CCCCCC, the excess molar enthalpy ([2]; x1 = 0.0798) is reported as 0.107 ± 0.0043 kcal/mol, the excess molar enthalpy ([2]; x1 = 0.1311) is reported as 0.152 ± 0.00621 kcal/mol and the excess molar enthalpy ([2]; x1 = 0.212) is reported as 0.202 ± 0.00813 kcal/mol. It also gave an excess molar enthalpy ([2]; x1 = 0.2521) of 0.215 ± 0.00884 kcal/mol, an excess molar enthalpy ([2]; x1 = 0.3083) of 0.232 ± 0.00956 kcal/mol and an excess molar enthalpy ([2]; x1 = 0.3089) of 0.232 ± 0.00956 kcal/mol. It also gave an excess molar enthalpy ([2]; x1 = 0.3472) of 0.239 ± 0.0098 kcal/mol, an excess molar enthalpy ([2]; x1 = 0.3858) of 0.24 ± 0.0098 kcal/mol and an excess molar enthalpy ([2]; x1 = 0.4188) of 0.241 ± 0.0098 kcal/mol. The excess molar enthalpy ([2]; x1 = 0.4682) was 0.241 ± 0.0098 kcal/mol, the excess molar enthalpy ([2]; x1 = 0.4835) was 0.241 ± 0.0098 kcal/mol and the excess molar enthalpy ([2]; x1 = 0.5079) was 0.239 ± 0.0098 kcal/mol. It also gave an excess molar enthalpy ([2]; x1 = 0.5984) of 0.229 ± 0.00932 kcal/mol, an excess molar enthalpy ([2]; x1 = 0.7107) of 0.194 ± 0.00789 kcal/mol and an excess molar enthalpy ([2]; x1 = 0.802) of 0.146 ± 0.00598 kcal/mol. It also gave an excess molar enthalpy ([2]; x1 = 0.8762) of 0.0978 ± 0.00406 kcal/mol.
With `CCN(CC)CCCN` [N,N-diethylpropane-1,3-diamine] + CCCCCCC the excess molar enthalpy ([2]; x1 = 0.0503) was 0.0645 ± 0.00263 kcal/mol, the excess molar enthalpy ([2]; x1 = 0.1038) was 0.121 ± 0.00502 kcal/mol and the excess molar enthalpy ([2]; x1 = 0.1491) was 0.16 ± 0.00645 kcal/mol. The excess molar enthalpy ([2]; x1 = 0.2452) was 0.217 ± 0.00884 kcal/mol, the excess molar enthalpy ([2]; x1 = 0.3961) was 0.255 ± 0.0103 kcal/mol and the excess molar enthalpy ([2]; x1 = 0.4516) was 0.258 ± 0.0105 kcal/mol. The excess molar enthalpy ([2]; x1 = 0.5013) was 0.255 ± 0.0105 kcal/mol, the excess molar enthalpy ([2]; x1 = 0.5973) was 0.235 ± 0.00956 kcal/mol and the excess molar enthalpy ([2]; x1 = 0.7014) was 0.199 ± 0.00813 kcal/mol. It also gave an excess molar enthalpy ([2]; x1 = 0.7987) of 0.149 ± 0.00598 kcal/mol and an excess molar enthalpy ([2]; x1 = 0.8974) of 0.0834 ± 0.00335 kcal/mol.
`CCN(CC)CCCN` [N,N-diethylpropane-1,3-diamine] + CCCCCCCCCCCC showed an excess molar enthalpy ([2]; x1 = 0.0601) of 0.0915 ± 0.00382 kcal/mol, an excess molar enthalpy ([2]; x1 = 0.1207) of 0.161 ± 0.00645 kcal/mol and an excess molar enthalpy ([2]; x1 = 0.2122) of 0.242 ± 0.0098 kcal/mol. For the same compound, the excess molar enthalpy ([2]; x1 = 0.3099) was 0.298 ± 0.0122 kcal/mol, the excess molar enthalpy ([2]; x1 = 0.4093) was 0.325 ± 0.0131 kcal/mol and the excess molar enthalpy ([2]; x1 = 0.4522) was 0.328 ± 0.0134 kcal/mol. The excess molar enthalpy ([2]; x1 = 0.5054) was 0.327 ± 0.0134 kcal/mol, the excess molar enthalpy ([2]; x1 = 0.6037) was 0.312 ± 0.0127 kcal/mol and the excess molar enthalpy ([2]; x1 = 0.71) was 0.267 ± 0.011 kcal/mol. For the same compound, the excess molar enthalpy ([2]; x1 = 0.8047) was 0.207 ± 0.00837 kcal/mol, the excess molar enthalpy ([2]; x1 = 0.9021) was 0.119 ± 0.00478 kcal/mol and the excess molar enthalpy ([2]; x1 = 0.9498) was 0.0648 ± 0.00263 kcal/mol.
With `CCCCCCC` [heptane] the “vapor or sublimation pressure” value ([1]; 303.15 K) was 7.786 ± 0.34 kPa, the “vapor or sublimation pressure” value ([1]; 313.15 K) was 12.32 ± 0.54 kPa and the “vapor or sublimation pressure” value ([1]; 323.15 K) was 18.85 ± 0.82 kPa. The “vapor or sublimation pressure” value ([1]; 333.15 K) was 27.98 ± 1.2 kPa and the “vapor or sublimation pressure” value ([1]; 343.15 K) was 40.43 ± 1.8 kPa.
